Results published in US9669028B2, “Substituted 5-(pyrazin-2-yl)-1H-pyrazolo [3, 4-B] pyridine and pyrazolo [3, 4-B] pyridine derivatives as protein kinase inhibitors” (Arrien Pharmaceuticals LLC, priority 2011, dated 2017).

What was measured:
Type in all cases: biochemical
[1] = target: LRRK2 (Homo sapiens (Human), UniProt Q5S007); test: LRRK2 Kinase Assay; settings: 10 μM ATP
Experimental: (§1) Briefly, specific kinase/substrate pairs along with required cofactors were prepared in reaction buffer; 20 mM Hepes (pH 7.5), 10 mM MgCl2, 1 mM EGTA, 0.02% Brij35, 0.02 mg/ml BSA, 0.1 mM Na3VO4, 2 mM DTT, 1% DMSO. Compounds were delivered into the reaction, followed ˜20 min later by addition of a mixture of ATP (Sigma) and 33P ATP (PerkinElmer) to a final concentration of 10 μM. […] IC50 values and curve fits were obtained using Prism (GraphPad Software). Kinome tree representations were prepared using Kinome Mapper (http://www.reactionbiology.com/apps/kinome/mapper/Launch Kinome.htm).
For the wild type LRRK the 2×LRRK2/ERM (LRRKtide) mixture was prepared in 50 mM Tris pH 8.5, 0.01% BRIJ-35, 10 mM MgCl2, 1 mM EGTA, 0.02% NaN3. […] After 1 hour Kinase Reaction incubation, 5 μL of Detection Mix was added.

[2] = target: LRRK2 G2019S (Homo sapiens (Human), UniProt Q5S007, G2019S); test: LRRK2 G2019S Kinase Assay; settings: 10 μM ATP
Sequence of LRRK2 G2019S (Q5S007 970-2527 G2019S): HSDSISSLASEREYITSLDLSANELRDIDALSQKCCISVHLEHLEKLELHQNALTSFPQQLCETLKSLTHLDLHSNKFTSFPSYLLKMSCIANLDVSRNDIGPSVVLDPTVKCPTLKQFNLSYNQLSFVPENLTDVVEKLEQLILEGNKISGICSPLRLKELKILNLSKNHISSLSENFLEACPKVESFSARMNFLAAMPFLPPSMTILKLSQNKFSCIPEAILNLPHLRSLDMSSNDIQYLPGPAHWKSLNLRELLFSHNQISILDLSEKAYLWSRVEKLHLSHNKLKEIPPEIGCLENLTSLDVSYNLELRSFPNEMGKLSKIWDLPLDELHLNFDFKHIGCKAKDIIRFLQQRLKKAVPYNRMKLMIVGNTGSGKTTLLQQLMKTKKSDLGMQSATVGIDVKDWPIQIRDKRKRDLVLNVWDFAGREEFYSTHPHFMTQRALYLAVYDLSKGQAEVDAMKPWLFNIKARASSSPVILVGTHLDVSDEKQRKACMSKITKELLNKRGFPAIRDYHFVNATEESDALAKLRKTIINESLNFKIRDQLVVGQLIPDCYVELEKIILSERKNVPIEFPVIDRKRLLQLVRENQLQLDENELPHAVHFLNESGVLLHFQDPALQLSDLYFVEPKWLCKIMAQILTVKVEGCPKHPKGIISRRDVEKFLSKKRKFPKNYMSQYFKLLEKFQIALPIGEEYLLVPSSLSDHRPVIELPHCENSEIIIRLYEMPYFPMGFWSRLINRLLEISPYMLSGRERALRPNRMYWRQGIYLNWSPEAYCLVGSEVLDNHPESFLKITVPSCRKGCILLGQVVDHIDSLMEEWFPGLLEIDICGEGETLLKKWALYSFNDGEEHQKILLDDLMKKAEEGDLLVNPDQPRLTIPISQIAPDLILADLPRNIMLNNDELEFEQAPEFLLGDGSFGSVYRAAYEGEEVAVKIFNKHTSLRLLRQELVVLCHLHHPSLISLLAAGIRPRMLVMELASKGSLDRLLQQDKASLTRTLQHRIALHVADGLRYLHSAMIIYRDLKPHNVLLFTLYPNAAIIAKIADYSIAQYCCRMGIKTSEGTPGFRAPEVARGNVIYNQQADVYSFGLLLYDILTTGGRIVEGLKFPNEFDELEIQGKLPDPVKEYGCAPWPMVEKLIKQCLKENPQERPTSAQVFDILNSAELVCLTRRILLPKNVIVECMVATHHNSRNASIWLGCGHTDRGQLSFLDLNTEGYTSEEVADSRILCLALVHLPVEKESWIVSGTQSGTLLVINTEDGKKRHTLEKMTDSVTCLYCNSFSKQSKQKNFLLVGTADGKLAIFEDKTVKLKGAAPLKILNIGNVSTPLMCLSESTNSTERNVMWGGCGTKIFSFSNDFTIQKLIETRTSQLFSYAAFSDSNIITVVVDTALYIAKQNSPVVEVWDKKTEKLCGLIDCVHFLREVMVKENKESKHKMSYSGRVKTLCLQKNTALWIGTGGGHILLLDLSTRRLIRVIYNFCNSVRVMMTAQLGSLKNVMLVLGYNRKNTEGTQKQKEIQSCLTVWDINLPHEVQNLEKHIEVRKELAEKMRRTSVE
Experimental: Procedure: Enzyme was incubated with substrate peptide in reaction buffer in the presence and absence of test compounds or Staurosporine. All additions were done on ice, followed by the addition of ATP mix. Wells were uniformly mixed using an Eppendorff plate shaker and incubated at 30° C. for 20 min, and stopped by the addition of 5 μl of 3% phosphoric acid. Volume was increased to 100 μl by adding 0.8% phosphoric acid which was then transferred to PC filter mats (Millipore), pre-equilibrated with 70% ethanol and water. Plates were washed thrice with 100 μl 0.8% phosphoric acid and dried for an hour at 60° C. 100 μl scintillation fluid was added into each well and reading taken in Perkin Elmer TOPCOUNT beta counter. […] A validation EC50 curve was generated by plotting CPM for each Staurosporine concentration on y-axis against the Log concentration of Staurosporine (nM) on the x-axis followed by a best fit curve through the points.
After 1 hour Kinase Reaction incubation, 5 μL of Detection Mix was added.

[3] = target: DYRK1A (Homo sapiens (Human), UniProt Q13627); test: In vitro DYRK1A inhibition assay
Experimental: as §1
The 2×DYRK1A/Ser/Thr 18 mixture was prepared in 50 mM HEPES pH 7.5, 0.01% BRIJ-35, 10 mM MgCl2, 1 mM EGTA.

Sequence of LRRK2 (Q5S007 970-2527): as the sequence (Q5S007 970-2527 G2019S) above, with S1050G counted along it

| SMILES | IC50 [1] [nM] | IC50 [2] [nM] | IC50 [3] [nM] |
| --- | --- | --- | --- |
| Cn1cc(-c2cnc3[nH]ncc3c2)cn1 [Compound 117, 5-(1-methyl-1H-pyrazol-4-yl)-1H-pyrazolo[3,4-b]pyridine] | > 1000 | > 1000 | – |
| CN1CCC(Nc2cncc(-c3cnc4[nH]cc(Cl)c4c3)n2)CC1 [Compound 141, 6-(3-chloro-1H-pyrrolo[2,3-b]pyridin-5-yl)-N-(1-methylpiperidin-4-yl)pyrazin-2-amine] | < 500 | < 500 | – |
| O=C1CCCN1c1cncc(-c2cnc3[nH]ccc3c2)n1 [Compound 131, 1-(6-(1H-pyrrolo[2,3-b]pyridin-5-yl)pyrazin-2-yl)pyrrolidin-2-one] | > 500 | > 500 | > 500 |
| COc1ccccc1-c1n[nH]c2ncc(-c3ccoc3)cc12 [Compound 184, 5-(furan-3-yl)-3-(2-methoxyphenyl)-1H-pyrazolo[3,4-b]pyridine] | < 500 | < 500 | < 500 |
| c1cnc(N2CCCC2)c(-c2cnc3[nH]ccc3c2)n1 [Compound 128, 5-(3-(pyrrolidin-1-yl)pyrazin-2-yl)-1H-pyrrolo[2,3-b]pyridine] | > 500 | > 500 | > 500 |
| Cc1n[nH]c2ncc(-c3cncc(NCCN(C)C)n3)cc12 [Compound 68, N^1,N^1-dimethyl-N2-(6-(3-methyl-1H-pyrazolo[3,4-b]pyridin-5-yl)pyrazin-2-yl)ethane-1,2-diamine] | < 500 | < 500 | > 1000 |
| Cc1n[nH]c2ncc(-c3cncc(N4CCCC4=O)n3)cc12 [Compound 48, 1-(6-(3-methyl-1H-pyrazolo[3,4-b]pyridin-5-yl)pyrazin-2-yl)pyrrolidin-2-one] | > 500 | > 500 | > 1000 |
| COc1ccccc1-c1n[nH]c2ncc(-c3ccsc3)cc12 [Compound 183, 3-(2-methoxyphenyl)-5-(thiophen-3-yl)-1H-pyrazolo[3,4-b]pyridine] | < 500 | < 500 | < 500 |
| Fc1c[nH]c2ncc(-c3cncc(N4CCOCC4)n3)cc12 [Compound 150, 4-(6-(3-fluoro-1H-pyrrolo[2,3-b]pyridin-5-yl)pyrazin-2-yl)morpholine] | < 500 | < 500 | < 500 |
| CN1CCC(Nc2cncc(-c3cnc4[nH]ccc4c3)n2)CC1 [Compound 140, N-(1-methylpiperidin-4-yl)-6-(1H-pyrrolo[2,3-b]pyridin-5-yl)pyrazin-2-amine] | < 500 | < 500 | – |
| O=C1CN(c2cncc(-c3cnc4[nH]ccc4c3)n2)CCN1 [Compound 133, 4-(6-(1H-pyrrolo[2,3-b]pyridin-5-yl)pyrazin-2-yl)piperazin-2-one] | > 500 | > 500 | – |
| O=C(c1cncc(-c2cnc3[nH]ccc3c2)n1)N1CCCCC1 [Compound 138, (6-(1H-pyrrolo[2,3-b]pyridin-5-yl)pyrazin-2-yl)(piperidin-1-yl)methanone] | > 500 | > 500 | – |
| Cc1n[nH]c2ncc(NC3CCCN(Cc4ccc(F)c(F)c4)C3)cc12 (stereo not shown) [Compound 26] | > 500 | > 500 | – |
| Cc1n[nH]c2ncc(-c3cnccn3)cc12 [Compound 45, 3-methyl-5-(pyrazin-2-yl)-1H-pyrazolo[3,4-b]pyridine] | > 1000 | > 1000 | – |
| CN1CC(Nc2cncc(-c3cnc4[nH]ccc4c3)n2)C1 [Compound 130, N-(1-methylazetidin-3-yl)-6-(1H-pyrrolo[2,3-b]pyridin-5-yl)pyrazin-2-amine] | > 500 | > 500 | – |
| Cc1n[nH]c2ncc(Nc3cncc(Cl)n3)cc12 [Compound 171, N-(6-chloropyrazin-2-yl)-3-methyl-1H-pyrazolo[3,4-b]pyridin-5-amine] | > 1000 | > 1000 | – |
| Cc1n[nH]c2ncc(-c3cncc(Cl)n3)cc12 [Compound 42, 5-(6-chloropyrazin-2-yl)-3-methyl-1H-pyrazolo[3,4-b]pyridine] | > 1000 | > 1000 | – |

Other lines, results leading:

| IC50 [1] [nM] | IC50 [2] [nM] | IC50 [3] [nM] | SMILES |
| --- | --- | --- | --- |
| > 1000 | > 1000 | – | Cc1n[nH]c2ncc(Nc3ccc(N4CCN(C)CC4)c(F)c3)cc12 [Compound 170, N-(3-fluoro-4-(4-methylpiperazin-1-yl)phenyl)-3-methyl-1H-pyrazolo[3,4-b]pyridin-5-amine] |
| > 1000 | > 1000 | – | CCOC(=O)c1cccc(-c2cnc3[nH]nc(C)c3c2)c1 [Compound 119, ethyl 3-(3-methyl-1H-pyrazolo[3,4-b]pyridin-5-yl)benzoate] |
| < 500 | < 500 | < 500 | OCCN1CCN(c2cncc(-c3cnc4[nH]ccc4c3)n2)CC1 [Compound 126, 2-(4-(6-(1H-pyrrolo[2,3-b]pyridin-5-yl)pyrazin-2-yl)piperazin-1-yl)ethanol] |
| > 1000 | > 1000 | – | Cc1n[nH]c2ncc(-c3nccnc3N3CCCC3)cc12 [Compound 74, 3-methyl-5-(3-(pyrrolidin-1-yl)pyrazin-2-yl)-1H-pyrazolo[3,4-b]pyridine] |
| < 500 | < 500 | < 500 | Cc1n[nH]c2ncc(-c3cncc(N4CCc5ccccc54)n3)cc12 [Compound 90, 5-(6-(indolin-1-yl)pyrazin-2-yl)-3-methyl-1H-pyrazolo[3,4-b]pyridine] |
| < 500 | < 500 | > 1000 | Cc1n[nH]c2ncc(-c3cncc(N4CCN(C)CC4)n3)cc12 [Compound 65, 3-methyl-5-(6-(4-methylpiperazin-1-yl)pyrazin-2-yl)-1H-pyrazolo[3,4-b]pyridine] |
| > 1000 | > 1000 | > 1000 | Cc1n[nH]c2ncc(-c3cccc(NC4CCN(C)CC4)c3)cc12 [Compound 98, 1-methyl-N-(3-(3-methyl-1H-pyrazolo[3,4-b]pyridin-5-yl)phenyl)piperidin-4-amine] |
| > 500 | > 500 | > 500 | Cc1n[nH]c2ncc(-c3cnn(C)c3)cc12 [Compound 108, 3-methyl-5-(1-methyl-1H-pyrazol-4-yl)-1H-pyrazolo[3,4-b]pyridine] |
| > 1000 | > 1000 | – | Cc1n[nH]c2ncc(Nc3cccc(CN4CCN(CCO)CC4)c3)cc12 [Compound 164, 2-(4-(3-((3-methyl-1H-pyrazolo[3,4-b]pyridin-5-yl)amino)benzyl)piperazin-1-yl)ethanol] |
| > 1000 | > 1000 | – | Cc1n[nH]c2ncc(-c3cccc(CC#N)c3)cc12 [Compound 158, 2-(3-(3-methyl-1H-pyrazolo[3,4-b]pyridin-5-yl)phenyl)acetonitrile] |
| > 500 | > 500 | – | Cc1n[nH]c2ncc(-c3cncnc3NC3CCN(C)CC3)cc12 [Compound 19, 5-(3methyl-1H-pyrazolo[3,4-b]pyridine-5yl)-N-(1-methylpiperidine-4yl)pyrimidin-4-amine] |
| > 1000 | > 1000 | – | Cc1n[nH]c2ncc(-c3ccc(N4CCN(C)CC4)cc3)cc12 [Compound 161, 3-methyl-5-(4-(4-methylpiperazin-1-yl)phenyl)-1H-pyrazolo[3,4-b]pyridine] |
| > 1000 | > 1000 | – | Cc1n[nH]c2ncc(-c3cccc(S(=O)(=O)N(C)C)c3)cc12 [Compound 111, N, N-dimethyl-3-(3-methyl-1H-pyrazolo[3,4-b]pyridin-5-yl)benzenesulfonamide] |
| > 1000 | > 1000 | – | CN1CCN(C(=O)c2cncc(-c3cnc4[nH]ccc4c3)n2)CC1 [Compound 139, (6-(1H-pyrrolo[2,3-b]pyridin-5-yl)pyrazin-2-yl)(4-methylpiperazin-1-yl)methanone] |
| > 1000 | > 1000 | – | C=CC(=O)Nc1cccc(-c2cnc3[nH]nc(C)c3c2)c1 [Compound 155, N-(3-(3-methyl-1H-pyrazolo[3,4-b]pyridin-5-yl)phenyl)acrylamide] |
| > 1000 | > 1000 | – | Cc1n[nH]c2ncc(Nc3ccc(CN4CCN(C)CC4)cc3)cc12 [Compound 167, 3-methyl-N-(4-((4-methylpiperazin-1-yl)methyl)phenyl)-1H-pyrazolo[3,4-b]pyridin-5-amine] |
| > 1000 | > 1000 | – | CC(=O)Nc1cccc(-c2cnc3[nH]nc(C)c3c2)c1 [Compound 114, N-(3-(3-methyl-1H-pyrazolo[3,4-b]pyridin-5-yl)phenyl)acetamide] |
| > 1000 | > 1000 | – | Cc1n[nH]c2ncc(-c3cccc(CN4CCN(C)CC4)c3)cc12 [Compound 123, 3-methyl-5-(3-((4-methylpiperazin-1-yl)methyl)phenyl)-1H-pyrazolo[3,4-b]pyridine] |
